Results: patent publication US11566007B2, “Ras inhibitors” (Revolution Medicines, Inc., priority 2019, dated 2023)
Where two headings read alike, the source gives them in different places.

What was measured:
[1] = test system: NCI-H358 (K-Ras G12C); experiment: CellTiter-Glo cell viability assay, NCI-H358; type: cell-based, human; conditions: NCI-H358, 5-day treatment, class symbols, read-out: Additional H358 Cell Viability assay data (K-Ras G12C, IC50)
Protocol: Note—The following protocol describes a procedure for monitoring cell viability of K-Ras mutant cancer cell lines in response to a compound of the invention. Other RAS isoforms may be employed, though the number of cells to be seeded will vary based on cell line used.
Test compounds (132.5 nL) were directly dispensed into the assay plates containing cells. […] On day 5, assay plates and their contents were equilibrated to room temperature for approximately 30 minutes. […] Luminescence was measured using the PerkinElmer Enspire. Data were normalized by the following: (Sample signal/Avg. DMSO)*100. The data were fit using a four-parameter logistic fit.

[2] = test system: NCI-H358 cells (K-Ras G12C); experiment: Potency assay: pERK in NCI-H358 cells; type: cell-based, human; conditions: H358 KRAS G12C, read-out: pERK EC50
Protocol: The purpose of this assay is to measure the ability of test compounds to inhibit K-Ras in cells. […] This procedure measures a decrease in cellular pERK in response to test compounds.
NCI-H358 cells were grown and maintained using media and procedures recommended by the ATCC. On the day prior to compound addition, cells were plated in 384-well cell culture plates (40 μl/well) and grown overnight in a 37° C., 5% CO2 incubator. Test compounds were prepared in 10, 3-fold dilutions in DMSO, with a high concentration of 10 mM. On the day of assay, 40 nL of test compound was added to each well of cell culture plate using an Echo550 liquid handler (LabCyte®). Concentrations of test compound were tested in duplicate. After compound addition, cells were incubated 4 hours at 37° C., 5% CO2. Following incubation, culture medium was removed and cells were washed once with phosphate buffered saline.
In some experiments, cellular pERK level was determined using the AlphaLISA SureFire Ultra p-ERK1/2 Assay Kit (PerkinElmer). Cells were lysed in 25 μL lysis buffer, with shaking at 600 RPM at room temperature. […] After a 2-hour incubation in the dark, 5 μL donor mix was added, plate was sealed, and incubated 2 hours at room temperature. Signal was read on an Envision plate reader (PerkinElmer) using standard AlphaLISA settings. Analysis of raw data was carried out in Excel (Microsoft) and Prism (GraphPad). Signal was plotted vs. the decadal logarithm of compound concentration, and IC50 was determined by fitting a 4-parameter sigmoidal concentration response model.
In other experiments, cellular pERK was determined by In-Cell Western. […] Fixed cells were washed 4 times for 5 minutes with TBS containing 0.1% Triton X-100 (TBST) and then blocked with 100 μL Odyssey blocking buffer (LI-COR) for 60 minutes at room temperature. […] Cells were washed 4 times for 5 minutes with TBST. Secondary antibody (IR-800CW rabbit, LI-COR, diluted 1:800) and DNA stain DRAQS (LI-COR, diluted 1:2000) were added and incubated 1-2 hours at room temperature. Cells were washed 4 times for 5 minutes with TBST. Plates were scanned on a Li-COR Odyssey CLx Imager. Analysis of raw data was carried out in Excel (Microsoft) and Prism (Graph Pad). Signal was plotted vs. the decadal logarithm of compound concentration, and IC50 was determined by fitting a 4-parameter sigmoidal concentration response model.

C=CC(=O)N1CC[C@H](C(=O)N(C)[C@H](C(=O)N[C@H]2Cc3cc(O)cc(c3)-c3ccc4c(c3)c(c(-c3cccnc3COC)n4CC)CC(C)(C)COC(=O)[C@@H]3CCCN(N3)C2=O)C(C)C)C1 [Example A16]
IC50 ([1]; Homo sapiens, NCI-H358, 120 h): 10 to 100 nM
EC50 ([2]; Homo sapiens, NCI-H358): < 5000 nM

C=CC(=O)N1CC[C@H](C(=O)N(C)[C@H](C(=O)N[C@H]2Cc3cc(O)cc(c3)-c3ccc4c(c3)c(c(-c3ccccc3OC)n4CC)CC(C)(C)COC(=O)[C@@H]3CCCN(N3)C2=O)C(C)C)C1 [Example A17]
IC50 ([1]; Homo sapiens, NCI-H358, 120 h): 100 to 1000 nM
EC50 ([2]; Homo sapiens, NCI-H358): < 5000 nM

C=CC(=O)N1CCN(C(=O)N(C)[C@H](C(=O)N[C@H]2Cc3cc(O)cc(c3)-c3ccc4c(c3)c(c(-c3ccccc3CCOC)n4CC)CC(C)(C)COC(=O)[C@@H]3CCCN(N3)C2=O)C(C)C)CC1 [Example A18]
IC50 ([1]; Homo sapiens, NCI-H358, 120 h): 100 to 1000 nM
EC50 ([2]; Homo sapiens, NCI-H358): < 5000 nM

CCn1c(-c2ccccc2CCOC)c2c3cc(ccc31)-c1cc(O)cc(c1)C[C@H](NC(=O)[C@H](C(C)C)N(C)C(=O)C1CCN(C(=O)/C=C/CN(C)C)CC1)C(=O)N1CCC[C@H](N1)C(=O)OCC(C)(C)C2 [Example A19]
IC50 ([1]; Homo sapiens, NCI-H358, 120 h): 100 to 1000 nM
EC50 ([2]; Homo sapiens, NCI-H358): < 5000 nM

C=CC(=O)N1CCC(F)(C(=O)N(C)[C@H](C(=O)N[C@H]2Cc3cc(O)cc(c3)-c3ccc4c(c3)c(c(-c3ccccc3CN(C)C)n4CC)CC(C)(C)COC(=O)[C@@H]3CCCN(N3)C2=O)C(C)C)CC1 [Example A20]
IC50 ([1]; Homo sapiens, NCI-H358, 120 h): 10 to 100 nM
EC50 ([2]; Homo sapiens, NCI-H358): < 5000 nM

C=CC(=O)N1CC[C@H](C(=O)N(C)[C@H](C(=O)N[C@H]2Cc3cc(O)cc(c3)-c3ccc4c(c3)c(c(-c3ccc(CC(=O)O)cc3)n4CC)CC(C)(C)COC(=O)[C@@H]3CCCN(N3)C2=O)C(C)C)C1 [Example A21]
IC50 ([1]; Homo sapiens, NCI-H358, 120 h): > 1000 nM
EC50 ([2]; Homo sapiens, NCI-H358): < 5000 nM

C=CC(=O)N1CC[C@H](C(=O)N(C)[C@H](C(=O)N[C@H]2Cc3cc(O)cc(c3)-c3ccc4c(c3)c(c(-c3ccccc3[C@H](C)OC)n4CC)CC(C)(C)COC(=O)[C@@H]3CCCN(N3)C2=O)C(C)C)C1 [Example A22]
IC50 ([1]; Homo sapiens, NCI-H358, 120 h): 10 to 100 nM
EC50 ([2]; Homo sapiens, NCI-H358): < 5000 nM

C=CC(=O)N1CC[C@H](C(=O)N(C)[C@H](C(=O)N[C@H]2Cc3cc(O)cc(c3)-c3ccc4c(c3)c(c(-c3ccccc3)n4CC)CC(C)(C)COC(=O)[C@@H]3CCCN(N3)C2=O)C(C)C)C1 [Example A23]
IC50 ([1]; Homo sapiens, NCI-H358, 120 h): 100 to 1000 nM
EC50 ([2]; Homo sapiens, NCI-H358): < 5000 nM

C=CC(=O)N1CC[C@H](C(=O)N(C)[C@H](C(=O)N[C@H]2Cc3cc(O)cc(c3)-c3ccc4c(c3)c(c(-c3c(F)cccc3CCOC)n4CC)CC(C)(C)COC(=O)[C@@H]3CCCN(N3)C2=O)C(C)C)C1 [Example A25]
IC50 ([1]; Homo sapiens, NCI-H358, 120 h): 100 to 1000 nM
EC50 ([2]; Homo sapiens, NCI-H358): < 5000 nM

C=CC(=O)N1CC[C@H](C(=O)N(C)[C@H](C(=O)N[C@H]2Cc3cc(O)cc(c3)-c3ccc4c(c3)c(c(-c3ccccc3N3CCOCC3)n4CC)CC(C)(C)COC(=O)[C@@H]3CCCN(N3)C2=O)C(C)C)C1 [Example A26]
IC50 ([1]; Homo sapiens, NCI-H358, 120 h): 100 to 1000 nM
EC50 ([2]; Homo sapiens, NCI-H358): < 5000 nM

C=CC(=O)N1CC[C@H](C(=O)N(C)[C@H](C(=O)N[C@H]2Cc3cc(O)cc(c3)-c3ccc4c(c3)c(c(-c3ccccc3COC)n4CC)CC(C)(C)COC(=O)[C@@H]3CCCN(N3)C2=O)C2CCCC2)C1 [Example A27]
IC50 ([1]; Homo sapiens, NCI-H358, 120 h): 10 to 100 nM
EC50 ([2]; Homo sapiens, NCI-H358): < 5000 nM

C=CC(=O)N1CC[C@H](C(=O)N(C)[C@H](C(=O)N[C@H]2Cc3cc(O)cc(c3)-c3ccc4c(c3)c(c(-c3cnccc3COC)n4CC)CC(C)(C)COC(=O)[C@@H]3CCCN(N3)C2=O)C(C)C)C1 [Example A28, (2S)-N-[(8S,14S)-22-ethyl-4-hydroxy-21-[4-(methoxymethyl)pyridin-3-yl]-18,18-dimethyl-9,15-dioxo-16-oxa-10,22,28-triazapentacyclo[18.5.2.1^[2,6].1^[10,14].0^[23,27]]nonacosa-1(26),2,4,6(29),20,23(27),24-heptaen-8-yl]-3-methyl-2-[N-methyl-1-[(3S)-1-(prop-2-enoyl)pyrrolidin-3-yl]formamido]butanamide]
IC50 [1]: < 10 nM
EC50 [2]: < 5000 nM

C=CC(=O)N1CC[C@H](C(=O)N(C)[C@H](C(=O)N[C@H]2Cc3cc(O)cc(c3)-c3ccc4c(c3)c(c(-c3ccccc3[C@@H](C)OC)n4CC)CC(C)(C)COC(=O)[C@@H]3CCCN(N3)C2=O)C(C)C)C1 [Example A29]
IC50 ([1]; Homo sapiens, NCI-H358, 120 h): 100 to 1000 nM
EC50 ([2]; Homo sapiens, NCI-H358): < 5000 nM

C=CC(=O)N1CC[C@H](C(=O)N(C)[C@H](C(=O)N[C@H]2Cc3cc(O)cc(c3)-c3ccc4c(c3)c(c(-c3cccc(CN(C)C)c3)n4CC)CC(C)(C)COC(=O)[C@@H]3CCCN(N3)C2=O)C(C)C)C1 [Example A30]
IC50 ([1]; Homo sapiens, NCI-H358, 120 h): 10 to 100 nM
EC50 ([2]; Homo sapiens, NCI-H358): < 5000 nM

C=CC(=O)N1CC2(CCN([C@H](C(=O)N[C@H]3Cc4cc(O)cc(c4)-c4ccc5c(c4)c(c(-c4ccccc4CCOC)n5CC)CC(C)(C)COC(=O)[C@@H]4CCCN(N4)C3=O)C(C)C)C2=O)C1 [Example A31]
IC50 ([1]; Homo sapiens, NCI-H358, 120 h): 10 to 100 nM
EC50 ([2]; Homo sapiens, NCI-H358): < 5000 nM

C=CC(=O)N1CCC(C(=O)N(C)[C@H](C(=O)N[C@H]2Cc3cc(O)cc(c3)-c3ccc4c(c3)c(c(-c3ccccc3CN(C)C)n4CC)CC(C)(C)COC(=O)[C@@H]3CCCN(N3)C2=O)C(C)C)CC1 [Example A33]
IC50 ([1]; Homo sapiens, NCI-H358, 120 h): 100 to 1000 nM
EC50 ([2]; Homo sapiens, NCI-H358): < 5000 nM

C=CC(=O)N1CC[C@H](C(=O)N(C)[C@H](C(=O)N[C@H]2Cc3cc(O)cc(c3)-c3ccc4c(c3)c(c(-c3ccc5cc(CN(C)C)n(C)c5c3)n4CC)CC(C)(C)COC(=O)[C@@H]3CCCN(N3)C2=O)C(C)C)C1 [Example A35]
IC50 ([1]; Homo sapiens, NCI-H358, 120 h): 10 to 100 nM
EC50 ([2]; Homo sapiens, NCI-H358): < 5000 nM

CCn1c(-c2ccccc2CCOC)c2c3cc(ccc31)-c1cc(O)cc(c1)C[C@H](NC(=O)[C@H](C(C)C)N(C)C(=O)[C@H]1CCN(C(=O)C#CCN(C)C)C1)C(=O)N1CCC[C@H](N1)C(=O)OCC(C)(C)C2 [Example A38]
IC50 ([1]; Homo sapiens, NCI-H358, 120 h): < 10 nM
EC50 ([2]; Homo sapiens, NCI-H358): < 5000 nM

C=CC(=O)N1CC[C@H](C(=O)N(C)[C@H](C(=O)N[C@H]2Cc3cc(O)cc(c3)-c3ccc4c(c3)c(c(-c3ccc(C5CCN(C)CC5)cc3)n4CC)CC(C)(C)COC(=O)[C@@H]3CCCN(N3)C2=O)C(C)C)C1 [Example A39]
IC50 ([1]; Homo sapiens, NCI-H358, 120 h): 10 to 100 nM
EC50 ([2]; Homo sapiens, NCI-H358): < 5000 nM

C=CC(=O)N1CC[C@H](C(=O)N(C)[C@H](C(=O)N[C@H]2Cc3cc(O)cc(c3)-c3ccc4c(c3)c(c(-c3ccc5c(c3)CCN(C)C5)n4CC)CC(C)(C)COC(=O)[C@@H]3CCCN(N3)C2=O)C(C)C)C1 [Example A40]
IC50 ([1]; Homo sapiens, NCI-H358, 120 h): 10 to 100 nM
EC50 ([2]; Homo sapiens, NCI-H358): < 5000 nM

C=CC(=O)N1C[C@H](C)[C@H](C(=O)N(C)[C@H](C(=O)N[C@H]2Cc3cc(O)cc(c3)-c3ccc4c(c3)c(c(-c3ccccc3CCOC)n4CC)CC(C)(C)COC(=O)[C@@H]3CCCN(N3)C2=O)C(C)C)C1 [Example A41]
IC50 ([1]; Homo sapiens, NCI-H358, 120 h): 10 to 100 nM
EC50 ([2]; Homo sapiens, NCI-H358): < 5000 nM

C=CC(=O)N1CC[C@H](C(=O)N(C)[C@H](C(=O)N[C@H]2Cc3cc(N)cc(c3)-c3ccc4c(c3)c(c(-c3ccccc3COC)n4CC)CC(C)(C)COC(=O)[C@@H]3CCCN(N3)C2=O)C(C)C)C1 [Example A42]
IC50 ([1]; Homo sapiens, NCI-H358, 120 h): 100 to 1000 nM
EC50 ([2]; Homo sapiens, NCI-H358): < 5000 nM

C=CC(=O)N1C[C@H](C)[C@H](C(=O)N(C)[C@H](C(=O)N[C@H]2Cc3cc(O)cc(c3)-c3ccc4c(c3)c(c(-c3ccccc3CN(C)C)n4CC)CC(C)(C)COC(=O)[C@@H]3CCCN(N3)C2=O)C2CCCC2)C1 [Example A43]
IC50 ([1]; Homo sapiens, NCI-H358, 120 h): 10 to 100 nM
EC50 ([2]; Homo sapiens, NCI-H358): < 5000 nM

C=CC(=O)N1CC[C@H](C(=O)N(C)[C@H](C(=O)N[C@H]2Cc3cc(O)cc(c3)-c3ccc4c(c3)c(c(-c3cccnc3COCC)n4CC)CC(C)(C)COC(=O)[C@@H]3CCCN(N3)C2=O)C(C)C)C1 [Example A44]
IC50 ([1]; Homo sapiens, NCI-H358, 120 h): 10 to 100 nM
EC50 ([2]; Homo sapiens, NCI-H358): < 5000 nM
